How the values were obtained:
α1β3 GABAA receptors = biological target: T1, α1β3 GABAA receptors (Rattus norvegicus, UniProt P62813+P63079); design: method as in earlier work; settings: published data, ref 1 (Supplementary References), read-out: Approximate EC50; cited from earlier work
T1 construct: expressed in transfected cells; host or cells: Xenopus laevis oocytes, mRNA injected

α5β3 GABAA receptors = biological target: T2, α5β3 GABAA receptors (Rattus norvegicus, UniProt P19969+P63079); design: method as in earlier work; settings: published data, ref 1 (Supplementary References), read-out: Approximate EC50; cited from earlier work
T2 construct: expressed in transfected cells; host or cells: Xenopus laevis oocytes, mRNA injected

α5β2γ2 GABAA receptors = biological target: α5β2γ2 GABAA receptors; design: method as in earlier work; settings: published data, ref 1 (Supplementary References), read-out: Approximate EC50; cited from earlier work
α1β1γ1 GABAA receptors = biological target: T3, α1β1γ1 GABAA receptors (Rattus norvegicus, UniProt P15431+P62813); assay: Two electrode voltage clamp in Xenopus laevis oocytes, α1β1γ1; type: cell-based
T3 construct: expressed in transfected cells; host or cells: Xenopus laevis oocytes, mRNA injected
Description: cDNA’s of rat GABAA receptor subunits α1, α4, β1, β2, β3 and γ2S were cloned as described. cDNAs of the rat subunits α2, α3 and α5 were gifts from P. Malherbe, that of α6 and γ1 were gifts of P. Seeburg and that of δ was a gift of C. Czajkowski. The mutants were constructed using the Q5 Site-Directed Mutagenesis Kit (New England Biolabs) following manufacturer’s instruction. We used the wild-type rat β3-pCI vector as template and the primers […] and […] resulting in a substitution of amino acid N41 (AAC) to R (AGG). We used the wild-type rat β1-pCI vector as template and the primers […] and […] resulting in a substitution of amino acid R41 (CGG) to N (AAC). The mutated subunits were confirmed by sequencing.
In vitro transcription of mRNA was based on the cDNA expression vectors encoding for rat GABAA receptor subunits α1–6, β1-3, γ1,2, δ and the two β mutants (β1R41N and β3N41R)[40]. After linearizing the cDNA vectors with appropriate restriction endonucleases, the cDNA was purified and concentrated with the DNA Clean and Contentrator ^TM Kit (Zymoresearch, Catalog No. D4005). Capped transcripts of the purified cDNA were produced using the mMESSAGE mMACHINE® T7 transcription kit (Ambion, TX, USA) and polyadenylated using the Ambion PolyA tailing kit (Ambion). After transcription and polyadenylation the RNA was purified with the MEGAclear ^TM Kit (Ambion, Catalog No. AM1908). The final RNA concentration was measured on NanoDrop® ND-1000 and finally diluted and stored in diethylpyrocarbonate-treated water at −80 °C. For the microinjection, the RNA of αβ receptor combinations was mixed at 1:1 ratio (which leads to αβ receptors that consist of predominantly 3 beta and 2 alpha subunits[27]), for αkβlγm (k = 1–3, l = 1, 3, m = 1, 2) receptors at 1:1:5 ratio, for αkβ3γ2 (k = 4–6) and αkβlδ (k = 1, 4 and 6, l = 1, 3) receptor combinations at 3:1:5 ratio.
Mature female Xenopus laevis (Nasco, WI) were anesthetized in a bath of ice-cold 0.17% Tricain (Ethyl-m-aminobenzoate, Sigma, MO) before decapitation in full accordance with all rules of the Austrian animal protection law (see http://www.ris.bka.gv.at/Dokumente/BgblAuth/BGBLA_2012_I_114/BGBLA_2012_I_114.pdf) and the Austrian animal experiment by-laws (see https://www.ris.bka.gv.at/Dokumente/BgblAuth/BGBLA_2012_II_522/BGBLA_2012_II_522.pdf) which implement the European Directive 2010/63/EU (see http://eur-lex.europa.eu/LexUriServ/LexUriServ.do?uri=OJ:L:2010:276:0033:0079:en:PDF) into the Austrian law (all information accessed on July 27, 2016). The frog’s ovaries were transferred to ND96 medium (96 mM NaCl, 2 mM KCl, 1 mM MgCl2, 5 mM HEPES; pH 7.5). Stage 5–6 oocytes with the follicle cell layer around them were roughly dissected with forceps into packages of 10–15 cells and washed in Ca^2+-free ND96 medium. Cells were then digested with collagenase (type IA, Sigma, NO, 1 mg/mL ND96) at 18 °C shaking at 30 rpm for 30–60 minutes and gently defolliculated with the aid of a glass pipette with appropriate tip diameter and a platinum loop. Defolliculated cells were stored at 18 °C for at least 6 hours in ND96 solution containing penicillin G (10000 IU/100 mL) and streptomycin (10 mg/100 mL) in order to preselect and exclude damaged cells from further treatment. Healthy defolliculated oocytes were injected with an aqueous solution of mRNA. A total of 4.5 ng of mRNA per oocyte was injected with a Nanoject II (Drummond). After injection of mRNA, oocytes were incubated at 18 °C (ND96 + antibiotic) for 2–3 days for αβ receptors and for 3–4 days for αβγ or αβδ receptors before recording. When cells were measured at later time points, oocytes were stored at +4 °C instead of 18 °C.
For electrophysiological recordings, oocytes were placed on a nylon-grid in a bath of Ca^2+-containing NDE solution medium [96 mM NaCl, 5 mM HEPES-NaOH (pH 7.5), 2 mM KCl, 1 mM MgCl2, 1.8 mM CaCl2].

α5β1γ2 GABAA receptors = biological target: α5β1γ2 GABAA receptors; design: method as in earlier work; settings: published data, ref 1 (Supplementary References), read-out: Approximate EC50; cited from earlier work
α2β2γ2 GABAA receptors = biological target: α2β2γ2 GABAA receptors; design: method as in earlier work; settings: published data, ref 1 (Supplementary References), read-out: Approximate EC50; cited from earlier work

T3 sequence (P62813 28-455): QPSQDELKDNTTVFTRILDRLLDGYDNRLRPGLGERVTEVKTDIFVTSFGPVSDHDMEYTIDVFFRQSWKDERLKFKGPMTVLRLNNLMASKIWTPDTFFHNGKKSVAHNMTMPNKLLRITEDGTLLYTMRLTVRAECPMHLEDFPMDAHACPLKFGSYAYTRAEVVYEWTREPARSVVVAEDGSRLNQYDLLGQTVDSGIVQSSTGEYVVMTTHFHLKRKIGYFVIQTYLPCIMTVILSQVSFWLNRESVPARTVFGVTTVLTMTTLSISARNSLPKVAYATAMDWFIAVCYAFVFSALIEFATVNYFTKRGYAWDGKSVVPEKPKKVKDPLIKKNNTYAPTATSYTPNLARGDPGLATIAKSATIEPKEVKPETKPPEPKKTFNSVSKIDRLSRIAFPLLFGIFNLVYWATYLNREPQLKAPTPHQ
T3 sequence (P15431 26-474): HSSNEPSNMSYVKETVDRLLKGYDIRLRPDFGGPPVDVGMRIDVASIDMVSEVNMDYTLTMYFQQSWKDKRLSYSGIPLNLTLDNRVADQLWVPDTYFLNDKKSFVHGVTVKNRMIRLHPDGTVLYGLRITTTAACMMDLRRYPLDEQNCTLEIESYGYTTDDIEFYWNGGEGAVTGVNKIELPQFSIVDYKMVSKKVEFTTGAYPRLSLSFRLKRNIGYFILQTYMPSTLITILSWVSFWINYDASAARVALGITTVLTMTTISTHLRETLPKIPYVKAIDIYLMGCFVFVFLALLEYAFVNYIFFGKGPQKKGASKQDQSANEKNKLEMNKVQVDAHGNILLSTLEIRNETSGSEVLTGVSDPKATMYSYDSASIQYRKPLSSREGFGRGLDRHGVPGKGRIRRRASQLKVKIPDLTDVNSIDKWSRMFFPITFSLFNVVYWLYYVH
T3 sequence (P23574 36-465 partner limits assumed): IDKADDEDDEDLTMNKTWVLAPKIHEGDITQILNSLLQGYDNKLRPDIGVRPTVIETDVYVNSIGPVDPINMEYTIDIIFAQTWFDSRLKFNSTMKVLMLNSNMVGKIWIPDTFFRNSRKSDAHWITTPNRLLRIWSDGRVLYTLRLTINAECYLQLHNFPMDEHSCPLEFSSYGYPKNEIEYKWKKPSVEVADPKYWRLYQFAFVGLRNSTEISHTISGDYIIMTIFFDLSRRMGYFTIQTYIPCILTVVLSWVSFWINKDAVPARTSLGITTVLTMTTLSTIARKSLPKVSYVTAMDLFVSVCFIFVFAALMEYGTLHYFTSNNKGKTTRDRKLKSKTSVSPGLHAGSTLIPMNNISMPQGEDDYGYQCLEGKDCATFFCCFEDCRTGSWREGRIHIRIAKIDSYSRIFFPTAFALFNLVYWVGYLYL
T1 sequence (P62813 28-455): as the sequence (P62813 28-455) above
T1 sequence (P63079 26-473): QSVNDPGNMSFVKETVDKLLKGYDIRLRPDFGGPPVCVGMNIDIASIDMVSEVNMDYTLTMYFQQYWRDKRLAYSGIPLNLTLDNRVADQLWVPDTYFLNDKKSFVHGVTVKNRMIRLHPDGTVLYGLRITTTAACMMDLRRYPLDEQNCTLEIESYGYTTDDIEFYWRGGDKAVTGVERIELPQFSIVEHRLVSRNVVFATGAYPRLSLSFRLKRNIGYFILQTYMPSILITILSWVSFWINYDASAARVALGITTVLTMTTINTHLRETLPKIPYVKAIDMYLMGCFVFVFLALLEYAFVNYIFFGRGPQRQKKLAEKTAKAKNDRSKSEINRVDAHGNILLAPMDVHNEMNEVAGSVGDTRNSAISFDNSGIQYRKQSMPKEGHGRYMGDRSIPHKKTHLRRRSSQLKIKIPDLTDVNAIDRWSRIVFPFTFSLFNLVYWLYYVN
T2 sequence (P19969 32-464 limits assumed): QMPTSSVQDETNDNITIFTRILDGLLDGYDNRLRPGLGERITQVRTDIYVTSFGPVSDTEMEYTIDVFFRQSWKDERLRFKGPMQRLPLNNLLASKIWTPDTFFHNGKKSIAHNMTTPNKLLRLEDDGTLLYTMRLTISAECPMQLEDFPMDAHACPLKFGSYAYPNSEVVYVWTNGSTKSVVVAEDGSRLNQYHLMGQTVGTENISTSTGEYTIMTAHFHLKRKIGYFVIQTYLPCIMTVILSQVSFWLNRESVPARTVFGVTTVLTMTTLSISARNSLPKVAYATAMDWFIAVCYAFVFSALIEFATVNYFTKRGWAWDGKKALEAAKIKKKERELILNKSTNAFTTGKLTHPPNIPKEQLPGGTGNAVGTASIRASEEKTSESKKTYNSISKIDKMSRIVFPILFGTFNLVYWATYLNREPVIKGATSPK
T2 sequence (P63079 26-473): as the sequence (P63079 26-473) above

EC50 (α1β1γ1 GABAA receptors): 0.08 µM
activity at 0.001 µM (α1β1γ1 GABAA receptors; read-out: efficacy, % of control current (GABA EC3-5 = 100%), α1β1γ1, 1 nM): 110 ± 9.9%
activity at 1 µM (α1β1γ1 GABAA receptors; read-out: efficacy, % of control current (GABA EC3-5 = 100%), α1β1γ1, 1 µM): 320 ± 17.9%
activity at 10 µM (α1β1γ1 GABAA receptors; read-out: efficacy, % of control current (GABA EC3-5 = 100%), α1β1γ1, 10 µM): 300 ± 20.8%
Hill slope (nH) (α1β1γ1 GABAA receptors; α1β1γ1): 1.1±0.4
SMILES: COc1ccc(-n2nc3c4cc(Cl)ccc4[nH]cc-3c2=O)cc1 [Compound 1, 8-Chloro-2-(4-methoxyphenyl)-2H-pyrazolo[4,3-c]quinolin-3(5H)-one]
EC50 (α1β3 GABAA receptors): ~1.6 µM
EC50 (α5β3 GABAA receptors): ~0.6 µM
EC50 (α5β2γ2 GABAA receptors): ~3 µM
EC50 (α5β1γ2 GABAA receptors): ~0.05 µM
EC50 (α2β2γ2 GABAA receptors): ~3.5 µM

Source: publication PMC5516028, “Molecular tools for GABAA receptors: High affinity ligands for β1-containing subtypes” (Scientific Reports, 2017)
